According to patent publication US10414760B2, “Cytochrome P450 inhibitors and uses thereof” (ANGION BIOMEDICA CORP., priority 2016, dated 2019):
Blank lines part the entries; values can stand above or below the molecule they belong to.

Tests used:
CYP19 = target: T1, CYP19 (Homo sapiens, UniProt P11511); assay: CYP19 inhibition: commercially available recombinant enzyme and assay kit; assay type: biochemical
T1 construct: purchased BD Gentest 456260
T1 sequence (P11511 1-503): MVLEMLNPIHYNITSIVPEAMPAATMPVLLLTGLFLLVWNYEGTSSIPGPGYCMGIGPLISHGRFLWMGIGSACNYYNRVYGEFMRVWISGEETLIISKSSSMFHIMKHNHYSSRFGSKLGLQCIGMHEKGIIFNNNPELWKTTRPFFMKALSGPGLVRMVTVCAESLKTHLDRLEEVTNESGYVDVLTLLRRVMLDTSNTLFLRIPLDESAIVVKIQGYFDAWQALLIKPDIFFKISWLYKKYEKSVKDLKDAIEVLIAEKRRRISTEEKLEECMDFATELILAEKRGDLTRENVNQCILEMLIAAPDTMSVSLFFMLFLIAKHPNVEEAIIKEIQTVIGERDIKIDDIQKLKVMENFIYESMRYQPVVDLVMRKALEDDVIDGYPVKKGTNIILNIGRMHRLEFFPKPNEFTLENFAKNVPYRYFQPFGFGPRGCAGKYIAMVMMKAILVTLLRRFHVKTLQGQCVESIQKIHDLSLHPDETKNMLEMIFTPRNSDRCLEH
Protocol: (§1) Serum Testosterone and PSA and Tumor Testosterone Analysis. Tumor tissue obtained from mice will be homogenized in phosphate buffer (pH 7.4, 0.1 M) and homogenates centrifuged at 2000 g for 20 min. Testosterone concentrations in the serum and in the clear tissue homogenate supernatant will be determined with the ELISA kit from R&D Systems (Catalog # KGR010). Serum PSA concentrations will be measured using a PSA ELISA kit with a serum dilution according to the manufacturers instructions. • c. Breast cancer. To test the efficacy of compounds embodied herein against breast cancer, nude mice carrying human breast cancer lines that are estrogen receptor and Aromatase positive will be used. Cells will be grown in vitro and 2 million will be inoculated in Matrigel (50:50 volume ratio of cells to Matrigel). Cells will be distributed by s.c. injection at the right and left flanks or at the orthotopic sitest in 6 to 8 week old athymic nude mice (BALB/c strain) or severe combined immunodeficient mice under anesthesia. Animals will be treated with compound for 4 weeks, at which point animals will be sacrificed and collect blood samples and tumor tissue for the determination of serum and tumor estrogen levels. Tumors will be excised and a portion will be fixed in formalin for subsequent histochemical and immuno-histochemical analysis. The remainder will be snap frozen in liquid nitrogen and stored at −80° C. • 12. CYP26 inhibition activity. A substrate depletion assay for ATRA metabolism in mouse microsomes is used. […] The assay is run in a 100 μL reaction volume and stopped with an equal volume of methanol. […] CYP17 inhibition assay: In vitro assays for CYP17 17α-hydroxylase and C17,20-lyase activity, assays using rat and dog testis microsomes and ELISA kits from commercial vendors for the detection of formed products are employed. Incubation of rat testis microsomes with the substrate progesterone (P4) results, through the CYP17 17α-hydroxylase and C17,20-lyase activities, in a marked production of androstenedione (AD) in a time and enzyme-concentration dependent manner. […] In another control, microsomes isolated from rat livers, which are known to express very little or no CYP17, are shown to be devoid of this activity. Assays are also used that determine the activity of 17α-hydroxylase activity using P4 as a substrate and detecting HOP4 as a product (using dog testis microsomes) and the activity of C17,20-lyase by using HOP4 as a substrate and AD as a product (rat testis microsomes). • 14. CYP19 inhibition assay: For in vitro assays of CYP19 aromatase activity, commercially available CYP19 enzyme preparations (e.g. BD Gentest Supersomes Catalog #456260) and assay kits (e.g. BD Gentest Catalog #459520) are employed according to the manufacturers instructions.
Selectivity for other P450 enzymes. To assess the selectivity of compounds embodied herein, activity was evaluated first against CYP3A4 and CYP19 using commercially available recombinant enzymes and assay kits. To calculate a selectivity factor, the IC50 for a particular P450 enzyme was divided by the IC50 in the CYP17 combination assay.

CYP26 [1] = target: T2, CYP26 (Mus musculus, UniProt O55127); assay: CYP26 inhibition: substrate depletion assay for ATRA metabolism in mouse microsomes; assay type: biochemical
T2 construct: tissue Xenotech; host or cells: liver microsomes of ATRA-treated mice
T2 sequence (O55127 1-497): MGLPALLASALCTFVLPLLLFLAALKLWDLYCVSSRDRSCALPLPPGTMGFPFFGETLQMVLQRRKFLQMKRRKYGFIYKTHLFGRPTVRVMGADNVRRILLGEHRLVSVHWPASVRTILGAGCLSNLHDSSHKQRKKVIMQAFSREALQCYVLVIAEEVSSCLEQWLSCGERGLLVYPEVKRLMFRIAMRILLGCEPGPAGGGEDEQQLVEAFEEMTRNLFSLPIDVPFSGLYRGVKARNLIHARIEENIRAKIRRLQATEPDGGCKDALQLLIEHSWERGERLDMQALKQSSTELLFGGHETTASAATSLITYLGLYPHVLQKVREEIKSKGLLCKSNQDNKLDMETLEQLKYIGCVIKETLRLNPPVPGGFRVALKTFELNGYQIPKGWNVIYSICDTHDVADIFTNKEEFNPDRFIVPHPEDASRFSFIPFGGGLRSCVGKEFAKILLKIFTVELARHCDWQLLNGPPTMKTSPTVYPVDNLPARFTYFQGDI
Protocol: as §1
CYP26 inhibition. […] The assay was run in a 100 μL reaction volume and stopped with an equal volume of methanol. […] Other compounds of formula (I) are similarly potent, for example with an IC50 of 1.6 nM.

CYP17 = target: T3, CYP17 (Rattus norvegicus, UniProt P11715); assay: CYP17 inhibition: 17α hydroxylase and C17,20 lyase activity in testis microsomes, ELISA detection; assay type: biochemical; conditions: which microsome assay (rat or dog testis) not specified
T3 construct: using rat and dog testis microsomes and ELISA kits from commercial vendors; from tissue; host or cells: rat testis microsomes
T3 sequence (P11715 1-507): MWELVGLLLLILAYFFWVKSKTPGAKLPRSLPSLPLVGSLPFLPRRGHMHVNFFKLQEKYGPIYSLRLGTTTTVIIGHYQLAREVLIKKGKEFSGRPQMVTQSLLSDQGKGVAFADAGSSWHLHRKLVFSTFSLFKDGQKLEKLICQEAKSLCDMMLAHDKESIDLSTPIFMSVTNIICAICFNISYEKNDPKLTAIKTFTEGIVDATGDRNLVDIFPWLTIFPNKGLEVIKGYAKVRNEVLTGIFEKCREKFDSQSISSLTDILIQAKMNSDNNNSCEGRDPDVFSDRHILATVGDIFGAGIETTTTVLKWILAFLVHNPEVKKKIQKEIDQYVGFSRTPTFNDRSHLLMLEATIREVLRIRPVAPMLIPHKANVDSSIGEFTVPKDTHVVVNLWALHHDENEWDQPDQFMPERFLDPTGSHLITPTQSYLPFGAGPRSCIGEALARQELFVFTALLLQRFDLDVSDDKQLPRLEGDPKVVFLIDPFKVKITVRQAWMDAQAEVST
Protocol: Serum Testosterone and PSA and Tumor Testosterone Analysis. Tumor tissue obtained from mice will be homogenized in phosphate buffer (pH 7.4, 0.1 M) and homogenates centrifuged at 2000 g for 20 min. Testosterone concentrations in the serum and in the clear tissue homogenate supernatant will be determined with the ELISA kit from R&D Systems (Catalog # KGR010). Serum PSA concentrations will be measured using a PSA ELISA kit with a serum dilution according to the manufacturers instructions. • c. Breast cancer. To test the efficacy of compounds embodied herein against breast cancer, nude mice carrying human breast cancer lines that are estrogen receptor and Aromatase positive will be used. Cells will be grown in vitro and 2 million will be inoculated in Matrigel (50:50 volume ratio of cells to Matrigel). Cells will be distributed by s.c. injection at the right and left flanks or at the orthotopic sitest in 6 to 8 week old athymic nude mice (BALB/c strain) or severe combined immunodeficient mice under anesthesia. Animals will be treated with compound for 4 weeks, at which point animals will be sacrificed and collect blood samples and tumor tissue for the determination of serum and tumor estrogen levels. Tumors will be excised and a portion will be fixed in formalin for subsequent histochemical and immuno-histochemical analysis. The remainder will be snap frozen in liquid nitrogen and stored at −80° C. • 12. CYP26 inhibition activity. […] The assay is run in a 100 μL reaction volume and stopped with an equal volume of methanol. […] CYP17 inhibition assay: In vitro assays for CYP17 17α-hydroxylase and C17,20-lyase activity, assays using rat and dog testis microsomes and ELISA kits from commercial vendors for the detection of formed products are employed. […] Assays are also used that determine the activity of 17α-hydroxylase activity using P4 as a substrate and detecting HOP4 as a product (using dog testis microsomes) and the activity of C17,20-lyase by using HOP4 as a substrate and AD as a product (rat testis microsomes). • 14.
CYP17 inhibition. In vitro assays for CYP17 17α hydroxylase and C17,20 lyase activity using rat and dog testis microsomes and ELISA kits from commercial vendors for the detection of formed products were employed. […] Assays were also used that determine the activity of 17α hydroxylase activity using P4 as a substrate and detecting HOP4 as a product (using dog testis microsomes) and the activity of C17,20 lyase by using HOP4 as a substrate and AD as a product (rat testis microsomes).

CYP26 [2] = target: T4, CYP26 (Homo sapiens, UniProt O43174); conditions: human recombinant enzyme; read-out: Km reported for the human recombinant enzyme; cited from earlier work
T4 sequence (O43174 1-497): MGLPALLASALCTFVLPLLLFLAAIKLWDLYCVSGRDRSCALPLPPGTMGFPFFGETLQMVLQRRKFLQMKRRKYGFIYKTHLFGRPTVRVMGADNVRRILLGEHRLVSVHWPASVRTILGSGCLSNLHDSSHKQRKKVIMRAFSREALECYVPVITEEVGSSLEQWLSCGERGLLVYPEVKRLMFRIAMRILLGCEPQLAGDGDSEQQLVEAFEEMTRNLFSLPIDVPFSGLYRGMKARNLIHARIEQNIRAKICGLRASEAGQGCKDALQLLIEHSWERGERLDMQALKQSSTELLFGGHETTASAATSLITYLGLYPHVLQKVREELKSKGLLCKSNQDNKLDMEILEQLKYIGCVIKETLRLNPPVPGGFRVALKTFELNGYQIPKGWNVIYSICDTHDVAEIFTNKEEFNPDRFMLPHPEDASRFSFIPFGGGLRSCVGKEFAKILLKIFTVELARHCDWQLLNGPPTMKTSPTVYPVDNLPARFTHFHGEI

[3] = substrate: CC1=C(/C=C/C(C)=C/C=C/C(C)=C/C(=O)O)C(C)(C)CCC1; assay: cells, lysate or membranes named; conditions: other: induced mouse microsomes; pH 7.4

IC50 (CYP19): < 1000 nM
IC50 (CYP26 [1]): < 1000 nM
IC50 (CYP17): < 5000 nM
Molecule: CCC(C(c1ccc2nc(N)sc2c1)n1ccnc1)N(C)C (stereo not shown) [Example 1, 6-(2-(Dimethylamino)-1-(1H-imidazol-1-yl)butyl)benzo[d]thiazol-2-amine]

Molecule: CC1=C(/C=C/C(C)=C/C=C/C(C)=C/C(=O)O)C(C)(C)CCC1 [ATRA, all-trans retinoic acid]
Km (CYP26 [2]): ~0.01 µM

IC50 (CYP19): < 1000 nM
IC50 (CYP26 [1]): < 1000 nM
IC50 (CYP17): < 5000 nM
Molecule: CCC(C(c1ccc2nc(Br)sc2c1)n1ccnc1)N(C)C (stereo not shown) [Example 8, 1-(2-Bromobenzo[d]thiazol-6-yl)-1-(1H-imidazol-1-yl)-N,N-dimethylbutan-2-amine]

IC50 (CYP19): < 1000 nM
IC50 (CYP17): < 5000 nM
Molecule: CCC(C(c1ccc2nc(C(N)=O)sc2c1)n1ccnc1)N(C)C (stereo not shown) [Example 14, 6-(2-(Dimethylamino)-1-(1H-imidazol-1-yl)butyl)benzo[d]thiazole-2-carboxamide]

B1: CYP26 (Mus musculus) (protein)
chain: T2 sequence (O55127 1-497)
Km [3]: 0.004 µM
